The source of these data is ChEMBL document CHEMBL4425168, “Dehydrozingerone Inspired Styryl Hydrazine Thiazole Hybrids as Promising Class of Antimycobacterial Agents” (ACS Med Chem Lett, 2016).

As a reminder, the MIC is the smallest concentration in the dilution series that meets the test's criterion for growth inhibition. In general, pIC50 refers to −log10 of the IC50, conventionally taken in molar units. The IC90 is the concentration at which the effect reaches the 90% level. A word on the MBC: it is the lowest tested concentration that kills the bacteria rather than only halting them.

pIC50: −log10 of the molar value. ≈ marks a conversion by molar mass, not a printed value.

The subject of assay [1] is Mycobacterium tuberculosis. As to the kind of experiment: Antitubercular activity against Mycobacterium tuberculosis H37Rv after 7 days by broth macrodilution assay. In kind it is functional. The following applies: 168 h.
The test system of assay [2] is Mycobacterium tuberculosis. Description: Antitubercular activity against Mycobacterium tuberculosis H37Rv by microplate Alamar blue assay. The class given is functional. For orientation: Resazurin is reduced to fluorescent resorufin, in cell work by metabolically active cells.
Assay [3] concerns Mycobacterium tuberculosis. As to the kind of experiment: Antitubercular activity against Mycobacterium tuberculosis H37Rv assessed as bacterial growth inhibition in aerobic conditions by dual read out fluorescence assay. The class given is functional.
For assay [4], the system named is Mycobacterium tuberculosis. Description: Antitubercular activity against Mycobacterium tuberculosis H37Rv assessed as bacterial growth inhibition under aerobic conditions after 5 days by dual read-out fluorescence assay. The class given is functional, organism-based. Conditions: 120 h.
Assay [5] concerns Mycobacterium tuberculosis. As to the kind of experiment: Antitubercular activity against Mycobacterium tuberculosis H37Rv INH-R2 ATCC 35822 after 5 days. The class given is functional, organism-based.
Assay [6] deals with Mycobacterium tuberculosis. As to the kind of experiment: Antitubercular activity against oxygen-deprived Mycobacterium tuberculosis H37Rv assessed as bacterial growth inhibition incubated for 5 days under aerobic conditions by LOR assay. Conditions: 120 h. The class given is functional, organism-based.
The test system of assay [7] is Mycobacterium avium. Description: Antibacterial activity against Mycobacterium avium assessed as reduction in bacterial metabolic activity after 5 days by Alamar blue assay. The following applies: 120 h. In kind it is functional.
Assay [8] relates to THP-1. As to the kind of experiment: Cytotoxicity in differentiated human THP1 cells assessed as reduction in cell viability after 3 days by CellTiter-Glo assay. The class given is cell-based. The following applies: THP-1, 72 h. In general terms: ATP-based viability assays read luminescence as a measure of living cells.
Assay [9] deals with Mycobacterium tuberculosis. As to the kind of experiment: Antitubercular activity against Mycobacterium tuberculosis H37Rv RIF-R2 ATCC 35828 after 5 days. Conditions: H37Rv RIF-R2 ATCC 35828, 120 h. In kind it is functional, organism-based.
For assay [10], the system named is Mycobacterium tuberculosis. As to the kind of experiment: Antitubercular activity against oxygen-deprived Mycobacterium tuberculosis H37Rv assessed as bacterial growth inhibition preincubated for 10 days under anaerobic conditions followed by incubation under aerobic conditions for 28 hrs by LOR assay. The class given is functional, organism-based.
For assay [11], the system named is Mycobacterium tuberculosis. Description: Bactericidal activity against replicating Mycobacterium tuberculosis H37Rv assessed as reduction in colony forming units incubated for 21 days. In kind it is functional. The following applies: 504 h.
Assay [12] has as its system Mycobacterium tuberculosis. As to the kind of experiment: Antitubercular activity against Mycobacterium tuberculosis H37Rv expressing luxABCDE infected in differentiated human THP1 cells assessed as reduction in bacteria infected cells after 72 hrs by luminescence assay. In kind it is functional, organism-based. The following applies: THP-1, 72 h.
In assay [13] the test system is Mycobacteroides abscessus. As to the kind of experiment: Antibacterial activity against Mycobacterium abscessus assessed as bacterial growth inhibition after 3 days by MABA method. Conditions: 72 h. In kind it is functional.
Assay [14] concerns Mycobacterium tuberculosis. As to the kind of experiment: Antitubercular activity against Mycobacterium tuberculosis H37Rv by radiometric assay. In kind it is functional.
Where [15] appears, read: Mycobacterium tuberculosis, H37Rv INH-R2 ATCC 35822, 120 h.

For `COC(=O)c1nc(N)sc1Cc1ccccc1`, in assay [1], the lowest concentration to inhibit growth (MIC) was 0.06 µg/mL (≈ 0.242 µM).

In [2], `CC(=O)c1nc(/C=C/c2ccccc2)c2ncn(Cc3ccccc3)c2n1` had an MIC of 6.25 µM (≈ 2.22 µg/mL).

Regarding `COc1ccc(-c2csc(N/N=C/c3ccc4c(c3)c3ccccc3n4C)n2)cc1OC`, the MIC in assay [3] came out at 21 µM (≈ 9.29 µg/mL).

Take `COc1ccc(/C=C/C(C)=N/Nc2nc(-c3cc(F)ccc3O)cs2)cc1OC`: the MIC in assay [4] was 1.5 to 200 µM (≈ 0.62 to 82.7 µg/mL).

Regarding `COc1ccc(/C=C/C(C)=N/Nc2nc(-c3ccc(N)cc3)cs2)cc1OC`, the pIC50 in assay [5] (setting [15]) is 6.42; in [6] it was 7.01; in assay [8] it was 4.96; in assay [9], 6.12; in assay [10], 7.20; in assay [12], over 7.01. The IC90 in [5] (setting [15]) was found to be 1.7 µM; in assay [9], 9.2 µM. Further, the MIC in assay [5] (setting [15]) was 1.5 µM (≈ 0.592 µg/mL); in assay [4], 1.5 to 200 µM (≈ 0.592 to 78.9 µg/mL); in assay [6], 0.28 µM (≈ 0.11 µg/mL); in assay [7] it was 100 µM (≈ 39.5 µg/mL); in [9] it was 6.3 µM (≈ 2.49 µg/mL); in [10] it was 46 µM (≈ 18.1 µg/mL). In [11], the MBC came out at 12 µM (≈ 4.73 µg/mL).

As for `COc1ccc(/C=C/C(C)=N/Nc2nc(-c3ccc(C)cc3)cs2)cc1OC`, the MIC in assay [4] lay within 1.5 to 200 µM (≈ 0.59 to 78.7 µg/mL).

For `COc1ccc(/C=C/C(C)=N/Nc2nc(-c3ccc(Cl)c(Cl)c3)cs2)cc1OC`, the MIC in assay [4] is over 200 µM.

Take `COc1ccc(/C=C/C(C)=N/Nc2nc(-c3cccc(C(F)(F)F)c3)cs2)cc1OC`: the MIC in [4] is over 200 µM.

Consider `COc1ccc(/C=C/C(C)=N/NC(N)=S)cc1OC`, for which the pIC50 in assay [5] (setting [15]) is 6.10; in [4] it was 6.01; in assay [6] it was 6.82; in [8] it was 4.30 to 4.96; in [9], 5.92; in [10] it was 6.72. Besides, the pIC50 in assay [12] is over 7.01. Besides, the IC90 in assay [5] (setting [15]) stood at 2.9 µM; in assay [9], 5.9 µM. The MIC was 2.5 µM (≈ 0.698 µg/mL) in assay [5] (setting [15]); 1.5 to 200 µM (≈ 0.419 to 55.9 µg/mL) in [4]; 0.5 µM (≈ 0.14 µg/mL) in [6]; over 200 µM in assay [7]; 4.8 µM (≈ 1.34 µg/mL) in assay [9]; 29 µM (≈ 8.1 µg/mL) in assay [10]. Moreover, the MIC in [13] is over 200 µM. Further, in [11], the MBC worked out at 6 µM (≈ 1.68 µg/mL).

As for `COc1ccc(/C=C/C(C)=N/Nc2nc(-c3ccc(OC)c(OC)c3)cs2)cc1OC`, the pIC50 is 5.15 in assay [5] (setting [15]), 5.13 in assay [4], 4.42 in assay [8] and 4.72 in [9]. Also, the IC90 is 12 µM in assay [5] (setting [15]) and over 200 µM in assay [9]. Besides, the MIC in [5] (setting [15]) is 13 µM (≈ 5.71 µg/mL); in [4], 16 µM (≈ 7.03 µg/mL); in assay [7], over 200 µM; in [9], 46 µM (≈ 20.2 µg/mL); in [13], over 200 µM.

In the case of `COc1ccc(-c2csc(N/N=C(C)/C=C/c3ccc(OC)c(OC)c3)n2)cc1`, the pIC50 is 5.10 in assay [5] (setting [15]), 5.08 in [4], 4.30 to 4.96 in [8] and 5.06 in assay [9]. Further, the IC90 in assay [5] (setting [15]) and in assay [9] was over 50 µM each time. The MIC in assay [5] (setting [15]) is 12 µM (≈ 4.91 µg/mL); in [4] it was 15 µM (≈ 6.14 µg/mL); in [7], over 200 µM; in [9] it was 31 µM (≈ 12.7 µg/mL); in [13], over 200 µM.

`COc1ccc(/C=C/C(C)=N/Nc2nc(-c3ccccc3O)cs2)cc1OC`: in assay [4], the pIC50 is 4.62 and the MIC turned out to be 40 µM (≈ 15.8 µg/mL).

Turning to `COc1ccc(/C=C/C(C)=N/Nc2nc(-c3ccccc3)cs2)cc1OC`, in [4], the MIC lay within 1.5 to 200 µM (≈ 0.569 to 75.9 µg/mL).

As to `COc1ccc(/C=C/C(C)=N/Nc2nc(-c3c(OC)cccc3OC)cs2)cc1OC`, the pIC50 in assay [5] (setting [15]) is 5.25; in [4], 5.18; in assay [8] it was 4.30 to 4.96; in assay [9], 5.00. Moreover, the 90% effect concentration (IC90) in assay [5] (setting [15]) and in assay [9] was over 25 µM in each case. For the same molecule, the MIC was 19 µM (≈ 8.35 µg/mL) in assay [5] (setting [15]); 28 µM (≈ 12.3 µg/mL) in assay [4]; over 100 µM in [7]; 41 µM (≈ 18 µg/mL) in assay [9]; over 100 µM in assay [13].

The molecule `O=[N+]([O-])c1ccc2nc(-c3ccccc3-c3nnc(/C=C/c4ccccc4)o3)[nH]c2c1` registered an MIC in [14] of 12.5 µg/mL (≈ 30.5 µM).

Regarding `COc1ccc(/C=C/C(C)=N/Nc2nc(-c3ccc(Br)cc3)cs2)cc1OC`, in [4], the MIC was over 200 µM.

Regarding `COc1ccc(/C=C/C(C)=N/Nc2nc(-c3ccc([N+](=O)[O-])cc3)cs2)cc1OC`, the MIC in assay [4] is over 200 µM.

On to `COc1ccc(O)c(-c2csc(N/N=C(C)/C=C/c3ccc(OC)c(OC)c3)n2)c1`, for which, in assay [4], the pIC50 is 4.64 and the MIC turned out to be 88 µM (≈ 37.4 µg/mL).

As to `COc1ccc(/C=C/C(C)=N/Nc2nc(-c3cc(Br)ccc3O)cs2)cc1OC`, the MIC in assay [4] lay within 1.5 to 200 µM (≈ 0.712 to 94.9 µg/mL).

Regarding `COc1ccc(/C=C/C(C)=N/Nc2nc(-c3ccc(Cl)cc3)cs2)cc1OC`, the minimal inhibitory concentration (MIC) in [4] fell in the range of 1.5 to 200 µM (≈ 0.621 to 82.8 µg/mL).

In assay [5] (setting [15]), `NNC(=O)c1ccncc1` [ISONIAZID] had a pIC50 of under 3.70, an IC90 of over 200 µM and an MIC of over 200 µM. Further, in [9], the negative logarithm of the IC50 (pIC50) is 6.27, the IC90 turned out to be 0.6 µM and the MIC amounted to 0.62 µM (≈ 0.085 µg/mL).

In assay [5] (setting [15]), `C[C@H]1COc2c(N3CCN(C)CC3)c(F)cc3c(=O)c(C(=O)O)cn1c23.C[C@H]1COc2c(N3CCN(C)CC3)c(F)cc3c(=O)c(C(=O)O)cn1c23.O` [LEVOFLOXACIN] showed a pIC50 of 6.08, a 90% effect concentration (IC90) of 1.4 µM and an MIC of 1.4 µM. Also, in [9], the pIC50 was 6.22, the IC90 was found to be 1.2 µM and the lowest concentration to inhibit growth (MIC) was 1.1 µM.

Regarding `CO[C@H]1/C=C/O[C@@]2(C)Oc3c(C)c(O)c4c(O)c(c(/C=N/N5CCN(C)CC5)c(O)c4c3C2=O)NC(=O)/C(C)=C\C=C\[C@H](C)[C@H](O)[C@@H](C)[C@@H](O)[C@@H](C)[C@H](OC(C)=O)[C@@H]1C` [RIFAMPIN], the IC90 was 0.012 µM in assay [5] and over 50 µM in [9]. Besides, the pIC50 in assay [5] (setting [15]) was 8.33; in assay [9], under 4.30. Also, the MIC in assay [5] (setting [15]) is 0.0065 µM (≈ 0.00535 µg/mL); in assay [4], 1.5 to 200 µM (≈ 1.23 to 165 µg/mL); in [7], 0.1 µM (≈ 0.0823 µg/mL); in assay [9], over 50 µM.
